According to patent US8338151B2, “Method for creating intracellular artificial nanostructures in situ” (The Hong Kong University of Science and Technology, priority 2005, dated 2012):

Experiment: Minimum gelation concentration / hydrogelation ability
Type: physicochemical
Excerpt: In this embodiment, precursors bearing the general formula C10H7CH2C(O)—ZZ (where Z is the residue of an amino acid) was used.
For this precursor, it is possible to use the enzyme kinase/phosphatase pair as an enzyme switch because (i) FF is prone to self-assembly (ii) Nap-FF gels water effectively (at 0.8 wt %), and (iii) the residue of Glu-Tyr (EY) accepts phosphorylation in the presence of a tyrosine kinase and the phosphorylation process can be reversed by phosphatase.
One of the motivations to use naphthalene (Nap) rather than N-(fluorenyl-methoxycarbonyl) (FMOC) is that Nap should be more biocompatible, as evidenced by several clinical drugs consisting of a Nap motif (i. e., propranolol, naphazoline, nafronyl). The glycine (G) was used to connect Nap-FF with EY because glycine is the simplest amino acid. Unlike other pentapeptides, FFGEY is not a known epitope of any protein, but it carries the basic structural requirement to serve as the substrate of the tyrosine kinase. After obtaining precursor IIIa through solid-phase synthesis, the hydrogelation ability of IIIa was tested. Via a slight adjustment of pH (from 7.8 to 7.5), IIIa forms a transparent hydrogel in water at 0.6 wt %). The successful hydrogelation of IIIa implies that Nap-FF also may act as a useful motif to conjugate with other amino acid residues to construct hydrogelators. […]

## O=C(Cc1ccc2ccccc2c1)N[C@@H](Cc1ccccc1)C(=O)N[C@@H](Cc1ccccc1)C(=O)O [C10H7CH2C(O)-L-Phe-L-Phe]
  minimum gelation concentration (mgc): ca. 0.4%
water
  concentration at which a hydrogel forms in water: 0.8 wt %
